# Measured values taken from US20170144972A1, “METHODS OF LOWERING PROPROTEIN CONVERTASE SUBTILISIN/KEXIN TYPE 9 (PCSK9)” (Catabasis Pharmaceuticals, Inc., priority 2012, published 2017).
# What was measured:
# PCSK9 = PCSK9 secretion assay in HepG2 cells (PCSK9 ELISA of supernatant); type: cell-based; conditions: for lowering of PCSK9 (FIG. 1): 25 and 50 μM
# Protocol: HepG2 cells (from ATCC, Catalog no. HB-8065) were maintained in DMEM (Invitrogen) supplemented with 10% fetal bovine serum (Invitrogen). The day prior to the PCSK9 assay, cells are seeded in 96-well collagen coated plates at 25,000 cells/well.
# The compounds of the invention were stored at −20° C. until used. The test article compound was dissolved in 100% ethanol to a 50 mM stock solution. This was then diluted in FBS to a final concentration of 1 mM. This solution was placed in a sonicating water bath for 30 minutes. Subsequent dilutions were then made in FBS supplemented with an equivalent volume of ethanol and mixed by vortexing.
# HepG2 cells were seeded onto a collagen coated 96-well plate (Becton Dickinson, Catalog no. 35-4407) the day prior to the assay, as described above. The next day, the cell medium was removed, washed once with […] serum free DMEM to remove any residual PCSK9, and replaced with […] of serum free DMEM. Ten microliters of each compound concentration prepared in FBS was then added. Each concentration of compound was tested in triplicate. The compound was incubated with the cells overnight for 16 hours. Following this incubation, 10 µL of AlamarBlue was added to each well and cells incubated for another 2 hours. The plates were then removed and AlamarBlue fluorescence was measured (excitation, 550 nm and […]) to assess cell viability. Cell culture supernatant was then diluted […] 1×RDSP Calibrator Diluent and PCSK9 ELISA was then performed with […] of this diluted sample, as per the manufacturer's instructions. The ELISA was measured on a Victor X5 multilabel plate reader (PerkinElmer) at an absorbance of 450 nm with background correction measured at 550 nm (The PCSK9 Elisa kits can be purchased from R&D System, Catalog no. DPC900).
# Alternatively, an IC50 could also be obtained when this type of assay was carried out using at least 6 different concentrations of the test compounds. Table 1 lists the IC50 values for the compounds tested in this assay.
# ApoE*3 Leiden mice = test: Liver weight, plasma cholesterol and triglycerides of ApoE*3 Leiden mice, 16 weeks of treatment; type: in vivo; conditions: I-8 in WTD at 7.5 g/kg
# Protocol: The same experimental design used in example 6 was used. Two treatment groups were used (n=15). The control animals were kept on a Western type diet (WTD) consisting of 1% cholesterol, 15% cacao butter, 40.5% sucrose, and 1% corn oil. For the treatment group, compound I-8 was administered in the above WTD at a ratio of 7.5 g/kg. Animals were maintained on the WTD or treatment group for 16 weeks. At the conclusion of the study, plasma cholesterol and triglyceride levels were recorded, as well as the weight of the liver. There was a significant decrease in plasma cholesterol, triglyceride levels as well as liver weight in the treatment group. After 16 weeks of treatment, the cholesterol level of the treatment group was 420 mg/dL, compared with a level of 750 mg/dL for the control group; the triglyceride level was 110 mg/dL, compared with a level of 160 mg/dL for the control group.
# APOE*3Leiden mice = test: Plasma cholesterol and triglycerides in ApoE3Leiden mice on Western type diet, 2 and 4 weeks of treatment; type: in vivo; conditions: female APOE*3Leiden mice, WTD, I-8 0.75% w/w in diet, atorvastatin 0.0015% w/w in diet
# Protocol: The study was conducted using female APOE*3Leiden mice (groups of each n=10) and one untreated reference control group on chow (n=5). To induce dyslipidemia, a high cholesterol Western type diet containing 1% cholesterol, 15% cacao butter, 40.5% sucrose and 1% corn oil (WTD) was fed to the mice for a total experimental period of 20 weeks (of which 4 weeks are a run-in period).
# The dyslipidemic mice were grouped on the basis of plasma cholesterol at t=0 assayed in 4 h fasting blood. Mice with low cholesterol after the run-in period were excluded so that homogenous experimental groups were obtained. A group of reference mice (n=5) remained on a chow diet during the complete study period (normolipidemic reference mice).
# This mix was then added to the master mix (containing the rest of the ingredients) and mixed thoroughly. The diet was frozen to −20° C. On the subsequent day, the diet was broken into small pellets (approx 5 g per piece) and freeze dried, and stored in vacuum sealed bags (approx 500 g) at −20° C. until use. The diets were refreshed daily and unused diet was discarded.
# 1) Body weight at −4, 0, 2, 4 weeks 2) Food intake (g/day/mouse) at 0, 2, 4 weeks (per cage) 3) Plasma total cholesterol at −4, 0, 2, 4 weeks (individually) 4) Plasma triglycerides at −4, 0, 2, 4 weeks (individually) 5) Lipoprotein profiles at 0 (pool of all animals) and 4 weeks (cholesterol distribution over VLDL, LDL and HDL-sized particles, analysis on group level).
# EDTA plasma was collected in weeks −4, 0, 2 and 4 weeks.
# [1] = test system: Zucker fa/fa Rat model of Dyslipidemia; test: Plasma triglyceride level of the Zucker fa/fa rat model of dyslipidemia; type: in vivo; conditions: male Zucker rats, po qd, 10, 30, 100 and 300 mg/kg, blood sample day 4
# Protocol: Male Zucker rats (HsdHlr: Zucker-Lepr̂fa) between 8-10 weeks of age were purchased from Harlan and maintained on Purina Rodent Diet (5001) for the duration of the study. Animals were randomized and assigned to treatment arms based on body weight and plasma triglyceride (TG) levels (n=8). Inclusion criteria for the study include body weight >300 grams and fed TG levels in plasma >800 mg/dL. Dosing will be initiated on day 1 and continue through day 5. Dosing will be daily (qd) by oral gavage (po) for all treatment arms (Compound I-8 was administered orally at 4 different doses, 10, 30, 100 and 300 mg/kg; in addition, a combination of niacin/EPA in a ratio of 100/200 mg/kg was also employed). Body weights will be measured for all rats on days 1 through 5. On day 4, a blood sample (fed) will be collected from each rat, processed for plasma and stored at −80° C. Plasma triglyceride level was determined from commercial kits using standard protocols. […] Because compound I-8 was able to lower fed plasma triglyceride, it is useful to treat dyslipidemia as well as other diseases such as type I hyperlipoproteinemia and type 5 hyperlipoproteinemia.
compound,measurement,setting,value
"CC/C=C\C/C=C\C/C=C\C/C=C\C/C=C\CCCC(=O)NCCNC(C)=O [Compound A, (5Z,8Z,11Z,14Z,17Z)—N-(2-acetamidoethyl)icosa-5,8,11,14,17-pentaenamide, reference compound]",activity toward PCSK9 (FIG. 1),"PCSK9; HepG2 cells, highest tested concentration of 50 μM",essentially no activity
"CC/C=C\C/C=C\C/C=C\C/C=C\C/C=C\CCCC(=O)NCCNC(=O)c1cccnc1 [Compound I-8, N-(2-(5Z,8Z,11Z,14Z,17Z)-eicosa-5,8,11,14,17-pentaenamidoethyl)nicotinamide]",liver weight (FIG. 7),ApoE*3 Leiden mice,statistically significant drop
same,plasma cholesterol at t=2 weeks (FIG. 4),APOE*3Leiden mice; 2 weeks,statistically significant reduction
same,plasma cholesterol after 4 weeks of treatment (FIG. 5),APOE*3Leiden mice; 4 weeks,Comparable level of cholesterol reduction
same,plasma triglyceride levels after 4 weeks of treatment (FIG. 6),APOE*3Leiden mice; 4 weeks,significant reduction
same,fed plasma triglyceride level (FIG. 3),[1],dose dependent decrease
same,PCSK9 levels in HepG2 cells incubated with atorvastatin (FIG. 2),PCSK9; HepG2 cells incubated with 10 μM of atorvastatin along with test article,decrease PCSK9 levels in a dose response manner to well below the atorvastatin level induced levels
same,lowering of PCSK9 (FIG. 1),PCSK9; HepG2 cells,significant lowering of PCSK9
"CC/C=C\C/C=C\C/C=C\C/C=C\C/C=C\CCCC(=O)NCCNC(=O)c1ccccc1 [II-1, N-(2-((5Z,8Z,11Z,14Z,17Z)-icosa-5,8,11,14,17-pentaenamido)ethyl)benzamide]",lowering of PCSK9 (FIG. 1),PCSK9; HepG2 cells,significant lowering of PCSK9
"CC(C)c1c(C(=O)Nc2ccccc2)c(-c2ccccc2)c(-c2ccc(F)cc2)n1CC[C@@H](O)C[C@@H](O)CC(=O)O [atorvastatin, reference compound]",PCSK9 secretion (FIG. 2),"PCSK9; HepG2 cells, 10 μM atorvastatin alone",increases PCSK9 secretion
